Experiments:
[1] = acute toxicity determination; settings: mouse, in vivo, ip; Rockland mice 18-22 g, intraperitoneal, observed for 7 days; read-out: LD50 (50% of animals died)
[2] = solubility in water (product description); assay type: physicochemical; settings: qualitative
[3] = tested on: eyelid ptosis caused by reserpine; assay: eyelid ptosis test (antagonism of reserpine, anti-depressant activity); assay type: in vivo, rats; settings: 1 h before reserpine 1 mg/kg i.p., read 4 h after reserpine, percent of controls receiving reserpine only
Protocol: The anti-depressant activity was determined by the eyelid ptosis test codified by Rubin, J. Pharm. Exp. Ther. Vol. 120 (1957), p. 125. […] The eyelid ptosis test is used as a quantitative evaluation of the animal's condition but the antagonism is equally exerted on all the neuro-depressive symptoms of reserpine: immobility, […], hypothermia,myosis, etc. […] The results of Table I are expressed as percent of ptosis compared to the controls receiving reserpine only.

Compound | LD50 at 168 h [1] | solubility in water [2] | % of ptosis ([3]; 1 mg/kg i.p.) | % of ptosis ([3]; 2 mg/kg i.p.) | % of ptosis ([3]; 5 mg/kg i.p.) | % of ptosis ([3]; 10 mg/kg i.p.) | % of ptosis ([3]; 20 mg/kg i.p.)
CNCCC1=Cc2ccccc2N(C)c2ccccc21.Cl [5-methyl-10(β-monomethylaminoethyl)-dibenzo (b,f) azepine hydrochloride] | ~75 mg/kg | insoluble in ether and water | 100% | 72% | 50% | 33% | 11%
CN(C)CCC1=Cc2ccccc2N(C)c2ccccc21 [5-methyl-10-(β-dimethylaminoethyl)-dibenzo (b,f) azepine] | ~50 mg/kg | insoluble in water | – | 100% | 59% | 37% | 30%
CN(C)CCC1=Cc2ccccc2N(C)c2cc(Cl)ccc21 [7-chloro-5-methyl-10-(β-dimethylaminoethyl)-dibenzo (b,f) azepine] | – | insoluble in water | – | – | – | – | –
CN(C)CCC1=Cc2ccccc2N(C)c2ccc(Cl)cc21 [8-chloro-5-methyl-10-(β-dimethylaminoethyl)-dibenzo(b,f)azepine] | – | insoluble in water | – | – | – | – | –
CNCCC1=Cc2ccccc2N(C)c2cc(Cl)ccc21 [fumarate of 7-chloro-5-methyl-10-(β-monomethylaminoethyl)-dibenzo (b,f) azepine] | – | slightly soluble in water | – | – | – | – | –
